According to the supplement of paper PMC10307832:

Experiments:
Assay in all cases: relative viability (nuclei count vs DMSO), 5 days (fraction); higher = more cells survive
[1] = compound: CN(c1ncccc1CNc1nc(Nc2ccc3c(c2)CC(=O)N3)ncc1C(F)(F)F)S(C)(=O)=O + Cc1cc(Nc2cc(N3CCN(C)CC3)nc(Sc3ccc(NC(=O)C4CC4)cc3)n2)n[nH]1 [Tozasertib] (partner 0.1 µM)
How it was run: (§1)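 Medians of duplicate plates are given as relative viability. That measure is the nuclei count in treated wells divided by the count in vehicle wells. Counts were taken on 4× images of lung cancer cell lines in 1536-well plates, 5 days after pin-tool dosing the day after seeding with one drug alone or a fixed anchor-drug dose plus five library-drug doses (not always all listed) in √10 steps.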

[2] = compound: CN(c1ncccc1CNc1nc(Nc2ccc3c(c2)CC(=O)N3)ncc1C(F)(F)F)S(C)(=O)=O + Cc1nc(Nc2ncc(C(=O)Nc3c(C)cccc3Cl)s2)cc(N2CCN(CCO)CC2)n1 [Dasatinib] (partner 0.075 µM)
How it was run: as §1

[3] = compound: CN(c1ncccc1CNc1nc(Nc2ccc3c(c2)CC(=O)N3)ncc1C(F)(F)F)S(C)(=O)=O + COc1cc2c(Oc3ccc(NC(=O)C4(C(=O)Nc5ccc(F)cc5)CC4)cc3F)ccnc2cc1OCCCN1CCOCC1 [Foretinib] (partner 0.25 µM)
How it was run: as §1

[4] = compound: CN(c1ncccc1CNc1nc(Nc2ccc3c(c2)CC(=O)N3)ncc1C(F)(F)F)S(C)(=O)=O + N=C(N)NC(=N)NCCc1ccccc1 [Phenformin] (partner 250 µM)
How it was run: as §1

[5] = compound: CN(c1ncccc1CNc1nc(Nc2ccc3c(c2)CC(=O)N3)ncc1C(F)(F)F)S(C)(=O)=O + COc1cccc2cc(-c3nc([C@H]4CC[C@H](C(=O)O)CC4)n4ncnc(N)c34)[nH]c12 [OSI-027] (partner 0.5 µM)
How it was run: as §1

[6] = compound: CN(c1ncccc1CNc1nc(Nc2ccc3c(c2)CC(=O)N3)ncc1C(F)(F)F)S(C)(=O)=O + CCNC(=O)c1noc(-c2cc(C(C)C)c(O)cc2O)c1-c1ccc(CN2CCOCC2)cc1 [Luminespib] (partner 0.01 µM)
How it was run: as §1

[7] = compound: CN(c1ncccc1CNc1nc(Nc2ccc3c(c2)CC(=O)N3)ncc1C(F)(F)F)S(C)(=O)=O
How it was run: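 Lung cancer cell lines in 1536-well plates were kept overnight at 37 °C, then pinned with five library-drug doses (not always all listed) spaced by √10 on vehicle-anchored plates. After 5 days without medium change, cells were fixed, permeabilised and Hoechst-stained in one step, imaged at 4×, and nuclei were counted with MetaXpress. Viability is treated-well nuclei divided by vehicle-well nuclei, taken as the median over plates. Plates passed only with control CV below 25% and at least one doubling.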

## NCI-H1623
[1]; first compound 0.03162 µM
  relative viability: 0.452
[1]; first compound 0.1 µM
  relative viability: 0.383
[1]; first compound 0.3162 µM
  relative viability: 0.447
[1]; first compound 1 µM
  relative viability: 0.428
[2]; first compound 0.03162 µM
  relative viability: 0.514
[2]; first compound 0.1 µM
  relative viability: 0.623
[2]; first compound 0.3162 µM
  relative viability: 0.51
[2]; first compound 1 µM
  relative viability: 0.528
[3]; first compound 0.01 µM
  relative viability: 0.798
[3]; first compound 0.03162 µM
  relative viability: 0.905
[3]; first compound 0.1 µM
  relative viability: 0.974
[3]; first compound 0.3162 µM
  relative viability: 0.882
[3]; first compound 1 µM
  relative viability: 0.826
[4]; first compound 0.03162 µM
  relative viability: 0.571
[4]; first compound 0.1 µM
  relative viability: 0.626
[4]; first compound 0.3162 µM
  relative viability: 0.568
[4]; first compound 1 µM
  relative viability: 0.593
[5]; first compound 0.01 µM
  relative viability: 0.418
[5]; first compound 0.03162 µM
  relative viability: 0.423
[5]; first compound 0.1 µM
  relative viability: 0.428
[5]; first compound 0.3162 µM
  relative viability: 0.435
[5]; first compound 1 µM
  relative viability: 0.462
[6]; first compound 0.03162 µM
  relative viability: 0.59
[6]; first compound 0.1 µM
  relative viability: 0.503
[6]; first compound 0.3162 µM
  relative viability: 0.514
[6]; first compound 1 µM
  relative viability: 0.429
[7]; 0.01 µM
  relative viability: 0.733
[7]; 0.03162 µM
  relative viability: 1.07
[7]; 0.1 µM
  relative viability: 0.92
[7]; 0.3162 µM
  relative viability: 0.968
[7]; 1 µM
  relative viability: 0.963
